In paper PMC8684500, “Substrate specificity of Chondroitinase ABC I based on analyses of biochemical reactions and crystal structures in complex with disaccharides” (Glycobiology, 2021):

How the values were obtained:
Experiment in all cases: X-ray crystal structure, soaking, […] Å
Type in all cases: binding
[1] = target: T1, Chondroitinase ABC I (cABC-I) (Proteus vulgaris, UniProt P59807); details: soaked at 100 mM; pH 7.5; two molecules in active site cleft
T1 construct: native purification from P. vulgaris cells (CSC as inducer); mature monomer, 997 residues; domains 25-234, 235-617, 618-1021
T1 sequence (P59807 25-1021): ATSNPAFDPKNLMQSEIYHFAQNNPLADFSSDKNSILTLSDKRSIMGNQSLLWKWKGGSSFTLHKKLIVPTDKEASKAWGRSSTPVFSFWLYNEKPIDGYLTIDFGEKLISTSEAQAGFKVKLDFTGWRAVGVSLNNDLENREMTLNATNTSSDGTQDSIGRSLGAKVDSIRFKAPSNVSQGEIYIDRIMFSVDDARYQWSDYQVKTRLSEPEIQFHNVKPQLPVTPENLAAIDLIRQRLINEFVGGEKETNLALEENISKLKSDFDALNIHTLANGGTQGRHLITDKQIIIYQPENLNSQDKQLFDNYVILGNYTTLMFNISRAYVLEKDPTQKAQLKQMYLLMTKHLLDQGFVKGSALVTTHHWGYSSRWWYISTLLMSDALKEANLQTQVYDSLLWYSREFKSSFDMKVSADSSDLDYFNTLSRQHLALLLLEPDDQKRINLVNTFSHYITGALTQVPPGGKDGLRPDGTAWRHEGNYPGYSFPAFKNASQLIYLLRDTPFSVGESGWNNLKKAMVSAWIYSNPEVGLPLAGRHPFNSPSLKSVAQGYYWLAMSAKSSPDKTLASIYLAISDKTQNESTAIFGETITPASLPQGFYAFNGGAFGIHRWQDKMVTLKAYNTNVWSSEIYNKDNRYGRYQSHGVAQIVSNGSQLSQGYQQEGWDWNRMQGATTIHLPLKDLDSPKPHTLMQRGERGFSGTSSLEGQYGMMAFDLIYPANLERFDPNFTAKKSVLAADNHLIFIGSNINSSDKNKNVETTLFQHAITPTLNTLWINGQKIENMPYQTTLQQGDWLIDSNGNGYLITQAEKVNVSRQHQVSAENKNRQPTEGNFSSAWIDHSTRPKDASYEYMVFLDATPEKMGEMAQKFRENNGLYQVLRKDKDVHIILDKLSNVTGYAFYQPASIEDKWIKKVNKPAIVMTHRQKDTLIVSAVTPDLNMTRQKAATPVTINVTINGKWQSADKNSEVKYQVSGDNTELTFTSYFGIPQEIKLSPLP

[2] = target: T1, Chondroitinase ABC I (cABC-I); details: soaked at 100 mM; pH 7.5; three molecules in active site cleft
[3] = target: T1, Chondroitinase ABC I (cABC-I); details: soaked at 100 mM; pH 7.5; two molecules in active site cleft; remark: listed apart in the source

CC(=O)N[C@H]1C(O)O[C@H](CO)[C@H](O)[C@@H]1O[C@@H]1OC(C(=O)O)=C[C@H](O)[C@H]1O (stereo partly drawn) [ΔDi-0S]
X-ray crystal structure, soaking, 2.50 Å [1]: 7EIS, cABC-I in complex with ΔDi-0S

CC(=O)N[C@H]1C(O)O[C@H](CO)[C@H](OS(=O)(=O)O)[C@@H]1O[C@@H]1OC(C(=O)O)=C[C@H](O)[C@H]1O (stereo partly drawn) [ΔDi-4S]
X-ray crystal structure, soaking, 1.80 Å [2]: 7EIQ, cABC-I in complex with ΔDi-4S

CC(=O)N[C@H]1C(O)O[C@H](COS(=O)(=O)O)[C@H](O)[C@@H]1O[C@@H]1OC(C(=O)O)=C[C@H](O)[C@H]1O (stereo partly drawn) [ΔDi-6S]
X-ray crystal structure, soaking, 1.92 Å [3]: 7EIR, cABC-I in complex with ΔDi-6S
